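Following 48 hours of exposure in 96-well plates, responses at five concentrations were used to interpolate endpoints linearly. GI50 marks 50% less growth. TGI denotes the concentration required for complete inhibition of growth.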
Test system: SNB-75 CNS
Test: DTP human tumour cell line panel, 48 h

Structure (SMILES) | TGI [µM]
CC1CCC(C(C)C)C(OC(=O)NCn2cc(-c3ccccc3)nn2)C1 (stereo unspecified) | 86
Cc1ccc(-n2c(N)c(C#N)c3[nH]nc(N)c3c2=O)cc1 | > 100

Test system: DU-145 prostate
Test: DTP human tumour cell line panel, 48 h

Structure (SMILES) | TGI [µM] | GI50 [µM]
CN(C)C1(N(C)C)Oc2c(c(=O)n(C)c(=O)n2C)C(c2ccccc2)C1(F)F (stereo unspecified) | > 100 | 
C=CCn1c(C)nc2ccc(Nc3nc(Nc4ccc5nc(C)n(CC=C)c5c4)c4ccccc4n3)cc21 | 3.27 | 1.85
COc1ccc2[nH]cc(C3(c4c[nH]c5ccc(OC)cc45)C(=O)Nc4ccc(F)cc43)c2c1 | 13.1 | 3.71
CC(C)(C)c1ccc(O)c(C(O)c2ccncc2)c1 (stereo unspecified) | > 100 | 
CC1CCC(C(C)C)C(OC(=O)NCn2cc(-c3ccccc3)nn2)C1 (stereo unspecified) | > 100 | 
Cc1ccc(-n2c(N)c(C#N)c3[nH]nc(N)c3c2=O)cc1 | > 100 | 

Test system: NCI-H460 lung
Test: DTP human tumour cell line panel, 48 h

Structure (SMILES) | TGI [µM] | GI50 [µM]
Cn1nc(C(=O)N2CC(CCl)c3c2cc(N)c2ccccc32)cc1NC(=O)Nc1cc(C(=O)N2CC(CCl)c3c2cc(N)c2ccccc32)nn1C (stereo unspecified) | > 100 | 
CN(C)C1(N(C)C)Oc2c(c(=O)n(C)c(=O)n2C)C(c2ccccc2)C1(F)F (stereo unspecified) | > 100 | 
COc1ccc2[nH]cc(C3(c4c[nH]c5ccc(OC)cc45)C(=O)Nc4ccc(F)cc43)c2c1 | 5.17 | 2.3
CC(C)(C)c1ccc(O)c(C(O)c2ccncc2)c1 (stereo unspecified) | > 100 | 
CC1CCC(C(C)C)C(OC(=O)NCn2cc(-c3ccccc3)nn2)C1 (stereo unspecified) | > 100 | 
Cc1ccc(-n2c(N)c(C#N)c3[nH]nc(N)c3c2=O)cc1 | > 100 | 

Test system: IGROV1 ovarian
Test: DTP human tumour cell line panel, 48 h

Structure (SMILES) | GI50 [µM] | TGI [µM]
COc1ccc2[nH]cc(C3(c4c[nH]c5ccc(OC)cc45)C(=O)Nc4ccc(F)cc43)c2c1 | 2.64 | 12.6
CC(C)(C)c1ccc(O)c(C(O)c2ccncc2)c1 (stereo unspecified) |  | > 100
CC1CCC(C(C)C)C(OC(=O)NCn2cc(-c3ccccc3)nn2)C1 (stereo unspecified) |  | > 100
Cc1ccc(-n2c(N)c(C#N)c3[nH]nc(N)c3c2=O)cc1 |  | > 100

Test system: RXF 393 renal
Test: DTP human tumour cell line panel, 48 h

Structure (SMILES) | TGI [µM] | GI50 [µM]
Cn1nc(C(=O)N2CC(CCl)c3c2cc(N)c2ccccc32)cc1NC(=O)Nc1cc(C(=O)N2CC(CCl)c3c2cc(N)c2ccccc32)nn1C (stereo unspecified) | 0.511 | 
CN(C)C1(N(C)C)Oc2c(c(=O)n(C)c(=O)n2C)C(c2ccccc2)C1(F)F (stereo unspecified) | > 100 | 
COc1ccc2[nH]cc(C3(c4c[nH]c5ccc(OC)cc45)C(=O)Nc4ccc(F)cc43)c2c1 | 6.54 | 2.31
CC(C)(C)c1ccc(O)c(C(O)c2ccncc2)c1 (stereo unspecified) | > 100 | 
Cc1ccc(-n2c(N)c(C#N)c3[nH]nc(N)c3c2=O)cc1 | > 100 | 

Test system: HOP-92 NSCLC
Test: DTP human tumour cell line panel, 48 h

Structure (SMILES) | TGI [µM] | GI50 [µM]
CN(C)C1(N(C)C)Oc2c(c(=O)n(C)c(=O)n2C)C(c2ccccc2)C1(F)F (stereo unspecified) | > 100 | 
COc1ccc2[nH]cc(C3(c4c[nH]c5ccc(OC)cc45)C(=O)Nc4ccc(F)cc43)c2c1 | 9.24 | 2.39
Oc1cc2cccc[n+]2c2cc(Cl)ccc12 | 9.88 | 5.06
CC1CCC(C(C)C)C(OC(=O)NCn2cc(-c3ccccc3)nn2)C1 (stereo unspecified) | > 100 | 
Cc1ccc(-n2c(N)c(C#N)c3[nH]nc(N)c3c2=O)cc1 | > 100 | 

Test system: OVCAR-4 ovarian
Test: DTP human tumour cell line panel, 48 h

Structure (SMILES) | TGI [µM] | GI50 [µM]
Cn1nc(C(=O)N2CC(CCl)c3c2cc(N)c2ccccc32)cc1NC(=O)Nc1cc(C(=O)N2CC(CCl)c3c2cc(N)c2ccccc32)nn1C (stereo unspecified) | > 100 | 
CN(C)C1(N(C)C)Oc2c(c(=O)n(C)c(=O)n2C)C(c2ccccc2)C1(F)F (stereo unspecified) | > 100 | 
COc1ccc2[nH]cc(C3(c4c[nH]c5ccc(OC)cc45)C(=O)Nc4ccc(F)cc43)c2c1 | 11.6 | 2.76
CC1CCC(C(C)C)C(OC(=O)NCn2cc(-c3ccccc3)nn2)C1 (stereo unspecified) | > 100 | 
Cc1ccc(-n2c(N)c(C#N)c3[nH]nc(N)c3c2=O)cc1 | > 100 | 

Test system: MDA-MB-435
Test: DTP human tumour cell line panel, 48 h

Structure (SMILES) | TGI [µM] | GI50 [µM]
CN(C)C1(N(C)C)Oc2c(c(=O)n(C)c(=O)n2C)C(c2ccccc2)C1(F)F (stereo unspecified) | > 100 | 
COc1ccc2[nH]cc(C3(c4c[nH]c5ccc(OC)cc45)C(=O)Nc4ccc(F)cc43)c2c1 | 4.73 | 1.97
Oc1cc2cccc[n+]2c2cc(Cl)ccc12 | 28.1 | 14.9
